Source: US7348034B2, “Plant based formulations for improving skin moisture, texture, and appearance” (Access Business Group International LLC, priority 2005, dated 2008)

Columns and labels:
[1] = system: Hs27 human fibroblast / HEK human keratinocyte co-cultures; test: Elastin synthesis in fibroblast/keratinocyte co-cultures (Fastin Elastin kit); format: cell-based; design: key: a “+” sign indicates an increase in synthesis; ++: multiple “+” signs indicating a higher increase in synthesis; +++: multiple “+” signs indicating a higher increase in synthesis; ++++: multiple “+” signs indicating a higher increase in synthesis; a “−” sign indicates decrease in synthesis; −−: multiple “−”signs indicating a higher decrease in synthesis; conditions: 10 mg/ml, overnight, elastin in supernatant
Method: Hs27, a human fibroblast cell culture and HEK, a human keratinocyte cell culture, were established in 24 well plates. The cells were exposed to various ingredients of the formulations of the present invention at concentrations of 10 mg/ml. The co-cultures were then incubated overnight. The following day supernatants were collected. The supernatants were analyzed for the presence of elastin using the Fastin Elastin® kit from Biocolor. Liao […]. 2004. “Relationship between collagen fibrils, glycosaminoglycans, and stress relaxation in mitral valve chordae […].” Ann. Biomed. Eng. 32(7):977-983.

[2] = system: Hs27 human fibroblast / HEK human keratinocyte co-cultures; test: Pro-collagen synthesis in fibroblast/keratinocyte co-cultures (ELISA); format: cell-based; design: key: a “+” sign indicates an increase in synthesis; ++: multiple “+” signs indicating a higher increase in synthesis; +++: multiple “+” signs indicating a higher increase in synthesis; ++++: multiple “+” signs indicating a higher increase in synthesis; a “−” sign indicates decrease in synthesis; −−: multiple “−”signs indicating a higher decrease in synthesis; conditions: 10 mg/ml, overnight, pro-collagen in supernatant
Method: Hs27, a human fibroblast cell culture and HEK, a human keratinocyte cell culture, were established in 24 well plates. The cells were exposed to various ingredients used in formulations of the present invention at concentrations of 10 mg/ml. The co-cultures were then incubated overnight. The following day, supernatants were collected. The supernatants were analyzed for the presence of pro-collagen, a soluble precursor of collagen formed by fibroblasts in the process of collagen synthesis. Pro-collagen synthesis was assayed using commercially available ELISA kits. See […], Falabella A, Ochoa S, Zhou […]. “Dermal fibroblasts from venous ulcers are unresponsive to the action of transforming growth factor-beta 1.” J Dermatol Sci. 1997. 16(1):59-66.

Human HEK001 cells = test: Lipid synthesis, Oil Red O staining; format: cell-based; design: key to Lipids: a “+” sign indicates an increase in synthesis; ++: multiple “+” signs indicating a higher increase in synthesis; +++: multiple “+” signs indicating a higher increase in synthesis; ++++: multiple “+” signs indicating a higher increase in synthesis; a “−” sign indicates decrease in synthesis; −−: multiple “−”signs indicating a higher decrease in synthesis; conditions: 0.005%, overnight; for Lipids: 0.05%, and 0.5% in media, Oil Red O OD 515 nm
Method: Human HEK001 cells were plated at 2×10^4/well in 96 well plates and were incubated overnight. The following day, the cells were exposed to: glycine, Cherokee rose hips, grape seed extract, Wolfberry extract, Pickled Ume, Ascorbic acid, Chinese Angelica extract, royal jelly, and α-tocopherol, which were diluted into cell culture media at concentrations of 0.005%, 0.05%, and 0.5%. The cells were then again incubated overnight. The following day, the cells were fixed in 1% formaldehyde. Cellular lipids were then stained with Oil Red O® stain. See Ramirez J L, Castro-Munnozledo F, Kuri-Harusch W. 1992. “Quantitation of adipose conversion and triglycerides by staining intracytoplasmic lipids with Oil Red O.” Histochemistry. 97:493-497. Following staining, the lipid bound stain was extracted with isopropanol. The OD of the extracted stain was read at 515 nm.

mouse keratinocytes = mouse keratinocytes in vitro; cited from earlier work
[3] = daily consumption of tomato paste over ten weeks; cited from earlier work
humans = conditions: supplementation with high doses; cited from earlier work
MMP-9 = MMP-9 enzyme activity (Molecular Probes kit); format: biochemical; design: key: a “+” sign indicates an increase in synthesis; ++: multiple “+” signs indicating a higher increase in synthesis; +++: multiple “+” signs indicating a higher increase in synthesis; ++++: multiple “+” signs indicating a higher increase in synthesis; a “−” sign indicates decrease in synthesis; −−: multiple “−”signs indicating a higher decrease in synthesis; conditions: samples diluted to 100 μg/ml
Text: (§1) Commercially available kits were used for testing the effect of various ingredients used in the formulations of the present invention on the activity of the MMP-1, MMP-9, and elastase. Gould L J, Yager D R, McGeehan G M, Diegelmann R F. 1999. “Method to analyze collagenase and gelatinase activity by fibroblasts in culture.” In Vitro Cell. Dev. Biol. Anim. 35(2):75-79. For MMP-1, a kit from Amersham® was used according to the manufacturer's specifications. For MMP-9 and Elastase, kits from Molecular Probes® were used. The samples were prepared in stock solvent at stock concentrations of 100 mg/ml. The samples were diluted to 100 μg/ml using PBS.

Elastase = target: T1, Elastase (Sus scrofa, UniProt P00772); test: Elastase enzyme activity (Molecular Probes kit); format: biochemical; design: key: a “+” sign indicates an increase in synthesis; ++: multiple “+” signs indicating a higher increase in synthesis; +++: multiple “+” signs indicating a higher increase in synthesis; ++++: multiple “+” signs indicating a higher increase in synthesis; a “−” sign indicates decrease in synthesis; −−: multiple “−”signs indicating a higher decrease in synthesis; conditions: samples diluted to 100 μg/ml
T1 construct: purchased Molecular Probes
T1 sequence (P00772 27-266): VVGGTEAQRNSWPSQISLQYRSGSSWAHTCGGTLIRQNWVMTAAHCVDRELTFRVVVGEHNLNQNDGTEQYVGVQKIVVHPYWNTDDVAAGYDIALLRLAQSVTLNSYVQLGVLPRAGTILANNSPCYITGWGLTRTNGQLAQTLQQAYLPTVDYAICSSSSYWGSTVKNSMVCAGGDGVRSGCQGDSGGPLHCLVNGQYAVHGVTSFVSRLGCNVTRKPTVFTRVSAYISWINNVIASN
Text: as §1

MMP-1 = target: T2, MMP-1 (Homo sapiens, UniProt P03956); test: MMP-1 enzyme activity (Amersham kit); format: biochemical; design: key: a “+” sign indicates an increase in synthesis; ++: multiple “+” signs indicating a higher increase in synthesis; +++: multiple “+” signs indicating a higher increase in synthesis; ++++: multiple “+” signs indicating a higher increase in synthesis; a “−” sign indicates decrease in synthesis; −−: multiple “−”signs indicating a higher decrease in synthesis; conditions: samples diluted to 100 μg/ml
T2 construct: purchased Amersham
T2 sequence (P03956 100-469): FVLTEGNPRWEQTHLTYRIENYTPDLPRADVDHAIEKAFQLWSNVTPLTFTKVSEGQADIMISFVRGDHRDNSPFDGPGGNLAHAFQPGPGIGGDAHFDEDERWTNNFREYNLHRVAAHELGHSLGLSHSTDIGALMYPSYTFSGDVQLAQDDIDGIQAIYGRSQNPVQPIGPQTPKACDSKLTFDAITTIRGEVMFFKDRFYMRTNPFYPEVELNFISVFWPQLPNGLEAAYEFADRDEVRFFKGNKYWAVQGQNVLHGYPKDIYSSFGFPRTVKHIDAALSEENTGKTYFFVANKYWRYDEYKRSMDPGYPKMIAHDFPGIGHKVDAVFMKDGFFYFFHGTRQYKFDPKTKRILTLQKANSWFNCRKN
Text: as §1

| Structure (SMILES) | Elastin [1] | Collagen [2] | Lipids (Human HEK001 cells) | further results |
| --- | --- | --- | --- | --- |
| O=C1O[C@H]([C@@H](O)CO)C(O)=C1O [Ascorbic acid] | + | ++++ | − | UVB-induced oxidative damage (mouse keratinocytes): shown to reduce UVB-induced oxidative damage in mouse |
| NCC(=O)O [Glycine] | − | + | − |  |
| CC(C)=CCC/C(C)=C/C=C/C(C)=C/C=C/C(C)=C/C=C/C=C(C)/C=C/C=C(C)/C=C/C=C(\C)CCC=C(C)C [Lycopene] |  |  |  | protection against erythema formation following UV-irradiation [3]: a period of ten weeks provides protection against erythema formation |
| CC1=C(/C=C/C(C)=C/C=C/C(C)=C/C=C/C=C(C)/C=C/C=C(C)/C=C/C2=C(C)CCCC2(C)C)C(C)(C)CCC1 [beta-carotene] |  |  |  | protection against UV-induced erythema (humans): with high doses of beta-carotene protects against UV-induced |
| Cc1c(C)c2c(c(C)c1O)CC[C@@](C)(CCC[C@H](C)CCC[C@H](C)CCCC(C)C)O2 [α-tocopherol] | − | − | + | MMP-9 (MMP-9): −; induction of lipid synthesis (Human HEK001 cells; 0.05%, and 0.5%, Oil Red O): demonstrated the ability to induce lipid synthesis; Elastase (Elastase): −; MMP-1 (MMP-1): − |
